Experimental data published in patent US20230099031A1, “BIFUNCTIONAL AGENTS FOR PROTEIN RECRUITMENT AND/OR DEGRADATION” (Orionis Biosciences, Inc., priority 2019, published 2023).
Counter-ions that a name gives are not always drawn.

Target: T1, CRBN (Homo sapiens, UniProt Q96SW2)
T1 construct: expressed in transfected cells; host or cells: HEK293T
Assay: Competition Assay: MAPPIT-like, competition with trimethoprim-lenalidomide hybrid ligand for binding to CRBN in HEK293T cells
Type: cell-based
Details: HEK293T cells, 300 nM trimethoprim-lenalidomide hybrid ligand, luciferase 24 hours after compound treatment; read-out: Competition IC50
From the text: A bait protein (protein A) is expressed as a fusion protein in which it is genetically fused to an engineered intracellular receptor domain of the leptin receptor, which is itself fused to the extracellular domain of the erythropoietin (Epo) receptor. Binding of Epo ligand to the EpoR component results in activation of receptor-associated intracellular JAK2. However, activated JAK2 cannot activate the leptin receptor to trigger STAT3 binding and its phosphorylation because its tyrosine residues, normally phosphorylated by activated JAK2, have been mutated. Reconstitution of a JAK2 phosphorylatable STAT3 docking site is instead created through interaction of a protein B with protein A, whereby protein B is fused to a cytoplasmic domain of the gp130 receptor (which now harbors appropriate tyrosine resides recognized by the activated JAK2 kinase). Thus, physical interaction of protein A with protein B reconstitutes and Epo triggers JAK2-STAT3 signaling pathway activation. Activation of STAT3 can be monitored by introduction of a STAT3-responsive reporter gene, including a luciferase-encoding gene or a gene encoding a fluorescent marker such as GFP or some other type of fluorescent protein (EGF etc.). In this manner, the MAPPIT assay provides a versatile assay to assess such recombinant protein-protein interactions, or compound- or hybrid ligand-induced protein-protein interactions, in intact cells.
Formation of the complex results in activation of a STAT-responsive luciferase reporter gene. That signal is set to 100% luciferase activity. In a separate sample set up, cells are prepared in the same manner but, in addition, co-incubated with a test compound whose interaction with CRBN is investigated. […] Increasing concentrations of test compound are assessed to determine CRBN binding efficiency as determined in this type of ligand competition experiment in living cells. Specificity of signal inhibition is assessed by a parallel experimental set up in which test compound effect is assessed for inhibition of signal generated by a control gp130 fusion protein (CTRL) that directly binds to the DHFR-fusion protein in the absence of hybrid ligand (i.e. a direct interaction of the proteins).
In more detail, HEK293T cells are cultured in Dulbecco's modified Eagle's medium supplemented with 10% fetal calf serum, incubated at 37° C., 8% CO2. […] Data points represent the average luciferase activity of triplicate samples derived from cells treated with leptin+test compound for the REM2 control (CTRL) or cells treated with leptin+hybrid ligand+test compound (CRBN) relative to leptin (CTRL) or leptin+hybrid ligand (CRBN) only treated samples (the signals obtained in absence of added test compound for both cases is set at 100% of luciferase activity on y-axis). Error bars represent standard deviations. Curves are fit using 4-parameter nonlinear regression in […] PRISM software

| IC50 | SMILES |
| --- | --- |
| 0.435 µM | C#CCOCCOCCOCCNc1nc(Nc2ccc3c(c2)CN(C2CCC(=O)NC2=O)C3=O)c2ccsc2n1 (centres unmarked) [Compound 5.01] |
| 0.376 µM | CC(C)(C)OC(=O)NCCOCCOCCOCCn1cc(CNc2nc(Nc3ccc4c(c3)CN(C3CCC(=O)NC3=O)C4=O)c3ccsc3n2)nn1 (centres unmarked) [Compound 5.02] |
| 0.873 µM | C#CCOCCOCCOCCNC(=O)COc1ccc2nc(C(=O)Nc3ccc4c(c3)C(=O)N(C3CCC(=O)NC3=O)C4)ccc2c1 (centres unmarked) [Compound 5.03] |
| 0.189 µM | C#CCOCCOCCOCCOCC(=O)Nc1cc(Br)c2c(c1OC)C(=O)N(C1CCC(=O)NC1=O)C2 (centres unmarked) [Compound 5.04] |
| 0.194 µM | C#CCOCCOCCOCCOCC(=O)Nc1ccc(-c2cccc3c2C(=O)N(C2CCC(=O)NC2=O)C3)cc1 (centres unmarked) [Compound 5.05] |
| 5.25 µM | C#CCOCCOCCOCCNC(=O)c1ccc(CNC(=O)CNc2ccc3c(c2)C(=O)N(C2CCC(=O)NC2=O)C3)cc1 (centres unmarked) [Compound 5.08] |
| 5.8 µM | CC/C(=C(\c1ccccc1)c1ccc(OCCN(C)CC(=O)NCCNC(=O)COc2cccc3c2CN(C2CCC(=O)NC2=O)C3=O)cc1)c1ccccc1 (centres unmarked) [Compound 5.56] |
| 0.109 µM | Cc1sc2c(c1C)C(c1ccc(Cl)cc1)=N[C@@H](CC(=O)NCCOCCOCCOCCOCCNC(=O)COc1cccc3c1CN(C1CCC(=O)NC1=O)C3=O)c1nnc(C)n1-2 (some centres unmarked) [Compound 5.57] |
| 0.0998 µM | Cc1sc2c(c1C)C(c1ccc(Cl)cc1)=N[C@@H](CC(=O)NCCOCCOCCOCCNC(=O)COc1cccc3c1CN(C1CCC(=O)NC1=O)C3=O)c1nnc(C)n1-2 (some centres unmarked) [Compound 5.58] |
| 0.068 µM | Cc1sc2c(c1C)C(c1ccc(Cl)cc1)=N[C@@H](CC(=O)NCCOCCOCCNC(=O)COc1cccc3c1CN(C1CCC(=O)NC1=O)C3=O)c1nnc(C)n1-2 (some centres unmarked) [Compound 5.59] |
| 0.116 µM | Cc1sc2c(c1C)C(c1ccc(Cl)cc1)=N[C@@H](CC(=O)NCCNC(=O)COc1cccc3c1CN(C1CCC(=O)NC1=O)C3=O)c1nnc(C)n1-2 (some centres unmarked) [Compound 5.60] |

Same assay, conditions: protocol and reagents of Example 1; read-out: IC50 Competition

| IC50 | SMILES |
| --- | --- |
| 23.8 µM | O=C1N=c2ccc(NC(=O)NCc3ccccc3)cc2=N1 [1-benzyl-3-(2-oxobenzimidazol-5-yl)urea] |
| 13.8 µM | O=C(O)CNc1cccc2c1CN(C1CCC(=O)NC1=O)C2=O (centres unmarked) [2-[[2-(2,6-dioxo-3-piperidyl)-1-oxo-isoindolin-4-yl]amino]acetic acid] |
| 58.3 µM | O=C1CCC(N2C(=O)c3ccccc3C2OCc2ccccc2)C(=O)N1 (centres unmarked) [3-(1-benzyloxy-3-oxo-isoindolin-2-yl)piperidine-2,6-dione] |
| 0.0334 µM | O=C1CCC(N2Cc3ccc(Nc4ncnc5ccccc45)cc3C2=O)C(=O)N1 (centres unmarked) [C80382 acetic acid salt, acetic acid;3-[1-oxo-6-(quinazolin-4-ylamino)isoindolin-2-yl]piperidine-2,6-dione] |
| 8.16 µM | COc1ccc(C2c3ccccc3C(=O)N2C2CCC(=O)NC2=O)cc1 (centres unmarked) [Compound C11892, 3-[1-(4-methoxyphenyl)-3-oxo-isoindolin-2-yl]piperidine-2,6-dione] |
| 10 µM | O=C1CCC(N2Cc3ccc(NCC(=O)N4CCCCC4)cc3C2=O)C(=O)N1 (centres unmarked) [Compound C12581] |
| 37400 µM | CC1CCN(C(=O)CNc2ccc3c(c2)C(=O)N(C2CCC(=O)NC2=O)C3)CC1 (centres unmarked) [Compound C12582, 3-[6-[[2-(4-methyl-1-piperidyl)-2-oxo-ethyl]amino]-1-oxo-isoindolin-2-yl]piperidine-2,6-dione] |
| 0.0492 µM | CC1CCCN(C(=O)CNc2ccc3c(c2)C(=O)N(C2CCC(=O)NC2=O)C3)C1 (centres unmarked) [Compound C12583, 3-[6-[[2-(3-methyl-1-piperidyl)-2-oxo-ethyl]amino]-1-oxo-isoindolin-2-yl]piperidine-2,6-dione] |
| 7.91e-05 µM | CC1CCCCN1C(=O)CNc1ccc2c(c1)C(=O)N(C1CCC(=O)NC1=O)C2 (centres unmarked) [Compound C12584, 3-[6-[[2-(2-methyl-1-piperidyl)-2-oxo-ethyl]amino]-1-oxo-isoindolin-2-yl]piperidine-2,6-dione] |
